How the values were obtained:
GRK2 [1] = biological target: T1, GRK2 (Homo sapiens, UniProt P25098); test: ADPGlo GRK2 Inhibition Assay (Example 2); assay type: biochemical; conditions: ADP-Glo, 10 μM ATP; read-out: ADP Glo Enzymatic GRK2 Assay: IC50 (nM) (Example 2)
T1 sequence (P25098 1-689): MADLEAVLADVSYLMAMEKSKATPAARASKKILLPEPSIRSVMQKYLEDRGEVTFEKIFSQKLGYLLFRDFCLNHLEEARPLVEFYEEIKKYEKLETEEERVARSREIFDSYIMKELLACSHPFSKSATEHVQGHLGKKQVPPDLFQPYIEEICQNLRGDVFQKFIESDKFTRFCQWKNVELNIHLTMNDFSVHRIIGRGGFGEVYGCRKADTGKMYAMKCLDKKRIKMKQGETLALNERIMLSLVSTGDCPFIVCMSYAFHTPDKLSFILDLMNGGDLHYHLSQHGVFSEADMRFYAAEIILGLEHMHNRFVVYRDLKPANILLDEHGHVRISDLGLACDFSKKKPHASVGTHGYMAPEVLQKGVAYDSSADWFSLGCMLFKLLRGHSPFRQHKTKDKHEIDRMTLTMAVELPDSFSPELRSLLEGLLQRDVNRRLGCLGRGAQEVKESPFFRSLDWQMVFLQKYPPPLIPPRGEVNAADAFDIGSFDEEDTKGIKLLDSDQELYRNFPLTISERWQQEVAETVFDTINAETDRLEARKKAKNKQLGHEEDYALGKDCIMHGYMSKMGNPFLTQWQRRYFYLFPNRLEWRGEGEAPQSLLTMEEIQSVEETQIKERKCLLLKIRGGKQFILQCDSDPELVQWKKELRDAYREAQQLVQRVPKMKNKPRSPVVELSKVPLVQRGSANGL
Protocol: Assay: GRK2 (7.5 nM) was incubated with ATP (10 μM) and GRKtide (0.3 mg/mL) in 5 μL of assay buffer (see above) for 180 min at room temperature. HTS was performed using 1 μM compound. Compounds were dissolved in 100% DMSO, serially diluted tree-fold from 100 μM concentration to 46 nM and transferred (50 nL) into assay ready plate.
(§1) Materials: GRK2 was purchased from SignalChem (Cat #A14-10G, Lot #X645-3). Substrate GRKtide was from SignalChem (Cat #G46-58, Lot #R339-6). ADP-Glo Kinase Assay from Promega (Cat #V9102). Assay buffer consisted of 25 mM HEPES (pH7.5), 10 mM MgCl2, 0.01% Tween-20, 1 mM DDT. 384-well white plates were from Greiner Bio-Rad (Item #784075).
HTS protocol: Take 384 well plate with 50 nL of compound in columns 3-22/DMSO solution 1-2,23-24. Add 2.5 μL assay buffer to columns 23 and 24 using Thermo Scientific Multidrop Combi Dispenser. Add 2.5 μL of 2× enzyme solution (15 nM in 1× assay buffer) using Thermo Scientific Multidrop Combi Reagent Dispenser to all columns except of 23 and 24. Incubate for 15 minutes. Fill plate with 2.5 μL of 2× substrate mix (20 μM ATP and 0.6 mg/mL GRKtide in 1× assay buffer) using Thermo Scientific Multidrop Combi Reagent Dispenser. Spin 15 seconds at 1000 rpm and incubate for 180 min at room temperature. Add 5 μL ADP-Glo reagent to all the wells. Spin 15 seconds at 1000 rpm and incubate for 40 min at room temperature. Add 10 μL Detection solution to all the wells. Incubate for 30 min at room temperature. Read plate in Luminescent mode on BMG PheraStar FSX (gain=3600).
Data Analysis: Data were analyzed in GraphPad Prism 8.0.2. Each HTS plate contains compounds in columns 3-22, controls (enzyme, no compound) in columns 1 and 2, and blanks (no enzyme) in columns 23 and 24. HTS percent inhibition was calculated for each compound from the signal in luminescence units and the mean of the plate controls and the mean of the plate blanks using the following equation: % Inhibition=100*(1−((signal−blank mean)/(control mean−blank mean))). At the final stage of data processing, we obtain dose-response curves, tables and SDF-files with the results of screening for each substance.

GRK2 [2] = biological target: T1, GRK2; test: Second ADPGlo GRK2 Inhibition Assay (Example 3); assay type: biochemical; conditions: ADP-Glo, 20 μM ATP; read-out: Second ADPGlo Enzymatic GRK2 Assay: IC50 (nM) (Example 3)
Protocol: Assay: GRK2 (2 nM) was incubated with ATP (20 μM) and GRKtide (1.2 mg/mL) in 11 μL of assay buffer (see above) for 180 min at room temperature. Compounds were dissolved in 100% DMSO, serially diluted 3.16-fold from 100 μM with 10 concentration points and transferred as 100× into assay plate (final compounds concentration in the reaction plate from 1 μM).
as §1, with “of 20” for “of 25”, “(pH7.5), 20” for “(pH7.5), 10”, “Tween-20, 0.05” for “Tween-20, 1”, “from Corning (Cat #4513).” for “from Greiner Bio-Rad (Item #784075).”
HTS protocol: Add 5.5 μL of 2× substrate-enzyme mix into all columns except of 1-2 and 24 of reaction plate. Spin 15 seconds at 200 g. Transfer 1 ul of compounds from the plate with serial dilutions (384 well plate with 22 uL of compound in columns 3-22/DMSO solution 1-2,23-24) to Dilution plate (384 well plate with 49 uL of buffer with 2×40 μM ATP). After mixing transfer 5.5 ul from Dilution plate to Reaction plate (to 5.5 μL of 2× substrate-enzyme mix). Spin 15 seconds at 200 g and incubate for 180 min at room temperature with sealing. Add 3 μL ADP-Glo reagent to all the wells. Spin 15 seconds at 200 g and incubate for 40 min at room temperature. Add 6 μL Detection solution to all the wells. Incubate for 30 min at room temperature. Read plate using ClarioStar Plus (BMG).
Data Analysis: Data were analyzed in GraphPad Prism 5.0.2. Each HTS plate contains compounds in columns 3-22, controls (enzyme, no compound) in column 23, and blanks (no enzyme) in columns 2. HTS percent inhibition was calculated for each compound from the signal in luminescence units and the mean of the plate controls and the mean of the plate blanks using the following equation: % Inhibition=100*(1-(signal-blank mean)/(control mean-blank mean)).

IC50 (GRK2 [1]) [nM]	IC50 (GRK2 [2]) [nM]	SMILES
< 100	< 100	Cc1ncsc1-c1ccc(CNC(=O)[C@@H]2C[C@@H](O)CN2C(=O)[C@@H](NC(=O)COCCOCCOCCOCCOCCOCCCCCCOc2cccc(CNC(=O)c3cccc(NCc4nnc(-c5ccncn5)n4C)c3)c2)C(C)(C)C)cc1 [Compound D100]
< 100	< 100	Cc1ncsc1-c1ccc(CNC(=O)[C@@H]2C[C@@H](O)CN2C(=O)[C@@H](NC(=O)COCCOCCCCCCOc2cccc(CNC(=O)c3cccc(NCc4nnc(-c5ccncn5)n4C)c3)c2)C(C)(C)C)cc1 [Compound D101]

Source: patent publication US20240174637A1, “DEGRADERS OF GRK2 AND USES THEREOF” (Sonata Therapeutics, Inc., priority 2021, published 2024)
